Data published in US20050119300A1, “Development of novel regulators of angiogenesis” (priority 2002, published 2005).

Tests used:
[1] = tested on: human vascular endothelial cells (HUVECS); experiment: Endothelial cell proliferation, 3H-thymidine uptake assay; type: cell-based; conditions: for % Inhibition vs 10% Serum / Average ([3H]-thymidine incorporation, radioactivity) / Well 1 ([3H]-thymidine incorporation, radioactivity) / Well 2 ([3H]-thymidine incorporation, radioactivity) / Well 3 ([3H]-thymidine incorporation, radioactivity) / Well 4 ([3H]-thymidine incorporation, radioactivity): Table 1A
Description: After 20 h, [^3H]-thymidine (2 μCi/ml) was added to the culture medium for 2-4 h. The [^3H]-thymidine incorporation was stopped with ice-cold PBS (3 washes) and the cells were incubated with cold 10% trichloroacetic acid (TCA) for 10 min at 4C. The cells were further incubated with TCA at room temperature for 10 min and washed three times with PBS. The cells were solubilized overnight with 1N NaOH and neutralized with an equivalent amount of 1N HCl before radioactivity was determined. […]

[2] = tested on: vascular endothelial growth factor (VEGF) and basic fibroblast growth factor (bFGF) induced angiogenesis; conditions: has been reported; cited from earlier work
endothelial cells = conditions: reported; cited from earlier work
[3] = tested on: VEGF-induced and bFGF-induced corneal neovascularization; conditions: further studies, reported; cited from earlier work

O=C1CCC(N2C(=O)c3ccccc3C2=O)C(=O)N1 (stereo not shown) [STD, thalidomide]
effect on endothelial cell proliferation (in words) ([1]; 3H-thymidine uptake): significant inhibition of endothelial cell proliferation
% Inhibition vs 10% Serum ([1]; 38.5 uM): −61.49%
Average ([3H]-thymidine incorporation, radioactivity) ([1]; 38.5 uM): 2700.214
Well 1 ([3H]-thymidine incorporation, radioactivity) ([1]; 38.5 uM): 1835.938
Well 2 ([3H]-thymidine incorporation, radioactivity) ([1]; 38.5 uM): 2018.496
Well 3 ([3H]-thymidine incorporation, radioactivity) ([1]; 38.5 uM): 4751.43
Well 4 ([3H]-thymidine incorporation, radioactivity) ([1]; 38.5 uM): 2194.99
% Inhibition vs 10% Serum ([1]; 96 uM): 30.39%
Average ([3H]-thymidine incorporation, radioactivity) ([1]; 96 uM): 1163.906
Well 1 ([3H]-thymidine incorporation, radioactivity) ([1]; 96 uM): 1736.688
Well 2 ([3H]-thymidine incorporation, radioactivity) ([1]; 96 uM): 850.094
Well 3 ([3H]-thymidine incorporation, radioactivity) ([1]; 96 uM): 1083.54
Well 4 ([3H]-thymidine incorporation, radioactivity) ([1]; 96 uM): 985.3011
% Inhibition vs 10% Serum ([1]; 192.5 uM): 78.48%
Average ([3H]-thymidine incorporation, radioactivity) ([1]; 192.5 uM): 359.8271
Well 1 ([3H]-thymidine incorporation, radioactivity) ([1]; 192.5 uM): 255.2577
Well 2 ([3H]-thymidine incorporation, radioactivity) ([1]; 192.5 uM): 435.4396
Well 3 ([3H]-thymidine incorporation, radioactivity) ([1]; 192.5 uM): 336.7686
Well 4 ([3H]-thymidine incorporation, radioactivity) ([1]; 192.5 uM): 411.8425
% Inhibition vs 10% Serum ([1]; 289 uM): 85.34%
Average ([3H]-thymidine incorporation, radioactivity) ([1]; 289 uM): 245.0808
Well 1 ([3H]-thymidine incorporation, radioactivity) ([1]; 289 uM): 198.4536
Well 2 ([3H]-thymidine incorporation, radioactivity) ([1]; 289 uM): 273.8429
Well 3 ([3H]-thymidine incorporation, radioactivity) ([1]; 289 uM): 272.3789
Well 4 ([3H]-thymidine incorporation, radioactivity) ([1]; 289 uM): 235.6478
% Inhibition vs 10% Serum ([1]; 385 uM): 86.86%
Average ([3H]-thymidine incorporation, radioactivity) ([1]; 385 uM): 219.7341
Well 1 ([3H]-thymidine incorporation, radioactivity) ([1]; 385 uM): 141.5772
Well 2 ([3H]-thymidine incorporation, radioactivity) ([1]; 385 uM): 255.4687
Well 3 ([3H]-thymidine incorporation, radioactivity) ([1]; 385 uM): 210.2551
Well 4 ([3H]-thymidine incorporation, radioactivity) ([1]; 385 uM): 271.6354
anti-angiogenic efficacy against VEGF and bFGF induced angiogenesis [2]: significant anti-angiogenic efficacy
inhibition of the in vitro proliferation of endothelial cells (endothelial cells): ability to inhibit

O=C1CC[C@H](N2C(=O)c3ccccc3C2=O)C(=O)N1 [S(−)-enantiomer of thalidomide]
anti-angiogenic activity in VEGF-induced and bFGF-induced corneal neovascularization [3]: potent anti-angiogenic activity
